# Laboratory results: ChEMBL document CHEMBL4028837, “Acetanilide and bromoacetyl-lysine derivatives as activators for human histone deacetylase 8” (Bioorg Med Chem Lett, 2017)
# Experiments:
# [1] = target: T1, Histone deacetylase 8 (Homo sapiens) (UniProt Q9BY41); test: Activation of human HDAC8 deacetylation activity at 50 uM using AMC less CH3CONH-FG-(Nepsilon-acetyl-lysine)-FSW-CONH2 as substrate measured after 10 mins by reverse phase HPLC method relative to control
# T1 sequence (whole entry): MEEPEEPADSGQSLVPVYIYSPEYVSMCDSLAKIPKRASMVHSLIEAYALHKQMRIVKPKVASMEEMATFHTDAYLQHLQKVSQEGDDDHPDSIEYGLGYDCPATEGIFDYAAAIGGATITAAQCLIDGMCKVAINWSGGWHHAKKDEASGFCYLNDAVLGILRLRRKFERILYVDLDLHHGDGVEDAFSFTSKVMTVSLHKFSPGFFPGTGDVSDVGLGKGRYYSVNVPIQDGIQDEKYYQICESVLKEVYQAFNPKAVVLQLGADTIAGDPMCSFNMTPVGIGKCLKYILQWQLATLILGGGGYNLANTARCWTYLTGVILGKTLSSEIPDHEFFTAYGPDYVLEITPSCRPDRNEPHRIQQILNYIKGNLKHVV
# [2] = target: T1, Histone deacetylase 8 (Homo sapiens); test: Activation of human HDAC8 deacetylation activity at 50 uM using AMC-Fluor-de-Lys-HDAC8 as substrate measured after 10 mins by reverse phase HPLC method relative to control
# [3] = organism: Homo sapiens; test: Activation of HDAC deacetylation activity in human HeLa nuclear extract at 50 uM using AMC-Fluor-de-Lys-HDAC8 as substrate measured after 5 mins by reverse phase HPLC method relative to control
# [4] = target: T1, Histone deacetylase 8 (Homo sapiens); test: Activation of human HDAC8 deacetylation activity assessed as decrease in substrate Kcat at 50 uM using AMC less CH3CONH-FG-(Nepsilon-acetyl-lysine)-FSW-CONH2 as substrate measured after 1.5 mins by reverse phase HPLC method relative to control; set-up: scale not given: the % may be the effect or the level left
# [5] = target: T1, Histone deacetylase 8 (Homo sapiens); test: Activation of human HDAC8 deacetylation activity assessed as reduction in substrate Km at 50 uM using AMC-Fluor-de-Lys-HDAC8 as substrate measured after 1.5 mins by reverse phase HPLC method relative to control
# [6] = target: T1, Histone deacetylase 8 (Homo sapiens); test: Activation of human HDAC8 deacetylation activity assessed as reduction in substrate Km at 50 uM using AMC less CH3CONH-FG-(Nepsilon-acetyl-lysine)-FSW-CONH2 as substrate measured after 1.5 mins by reverse phase HPLC method relative to control
# [7] = target: T1, Histone deacetylase 8 (Homo sapiens); test: Activation of human HDAC8 deacetylation activity assessed as reduction in substrate Kcat at 50 uM using AMC-Fluor-de-Lys-HDAC8 as substrate measured after 1.5 mins by reverse phase HPLC method relative to control
# [8] = target: T1, Histone deacetylase 8 (Homo sapiens); test: Activation of human HDAC8 deacetylation activity assessed as ratio of Kcat to Km for substrate at 50 uM using AMC-Fluor-de-Lys-HDAC8 as substrate measured after 1.5 mins by reverse phase HPLC method relative to control
# [9] = target: T1, Histone deacetylase 8 (Homo sapiens); test: Activation of human HDAC8 deacetylation activity assessed as ratio of Kcat to Km for substrate at 50 uM using AMC less CH3CONH-FG-(Nepsilon-acetyl-lysine)-FSW-CONH2 as substrate measured after 1.5 mins by reverse phase HPLC method relative to control
# [10] = organism: Homo sapiens; test: Activation of HDAC deacetylation activity in human HeLa nuclear extract at 50 uM using AMC less CH3CONH-RH-(Nepsilon-acetyl-lysine)-(Nepsilon-acetyl-lysine)-CONH2 as substrate measured after 10 mins by reverse phase HPLC method relative to control
fold change (FC) [1],fold change (FC) [2],fold change (FC) [3],Activity [4] [%],fold change (FC) [5],fold change (FC) [6],fold change (FC) [7],fold change (FC) [8],fold change (FC) [9],fold change (FC) [10],Structure (SMILES)
1.3,1.7,0.89,,,,,,,0.81,CC(=O)Nc1cccc(C(F)(F)F)c1
1.4,1.7,0.93,,,,,,,0.83,CC(=O)Nc1ccc(C(F)(F)F)cc1
1.4,1.1,0.93,,,,,,,0.64,O=C(Nc1ccc(C(F)(F)F)cc1)C(F)(F)F
1.2,1.4,0.87,,,,,,,1.22,O=C(Nc1ccccc1C(F)(F)F)C(F)(F)F
2.7,1.7,0.96,,,,,,,0.54,O=C(Nc1cccc(C(F)(F)F)c1)C(F)(F)F

# Continued, compound first:
Structure (SMILES),fold change (FC) [1],fold change (FC) [2],fold change (FC) [3],Activity [4] [%],fold change (FC) [5],fold change (FC) [6],fold change (FC) [7],fold change (FC) [8],fold change (FC) [9],fold change (FC) [10]
CC(C)(C)OC(=O)N[C@@H](CCCCNC(=O)CBr)C(=O)Nc1ccccc1,5.6,2.8,1.09,< 40,3.5,3.6,13,3.7,2.6,1.22
CC(=O)Nc1ccccc1C(F)(F)F,1.5,1.2,0.98,,,,,,,1.45
O=C(NC(=S)Nc1ccccc1)c1ccccc1,0.5,2.2,0.69,,,,,,,0.58
